Test results reported in BindingDB's records for doi:10.3109/10799899109064686 (Center For Bio-Pharmaceutical Sciences, 1991).

Assays:
[1] = molecular target: Sodium-dependent serotonin transporter (Rattus norvegicus, UniProt P31652)
[2] = molecular target: T1, Muscarinic acetylcholine receptor M2 (Rattus norvegicus, UniProt P10980)
T1 sequence (P10980 whole entry): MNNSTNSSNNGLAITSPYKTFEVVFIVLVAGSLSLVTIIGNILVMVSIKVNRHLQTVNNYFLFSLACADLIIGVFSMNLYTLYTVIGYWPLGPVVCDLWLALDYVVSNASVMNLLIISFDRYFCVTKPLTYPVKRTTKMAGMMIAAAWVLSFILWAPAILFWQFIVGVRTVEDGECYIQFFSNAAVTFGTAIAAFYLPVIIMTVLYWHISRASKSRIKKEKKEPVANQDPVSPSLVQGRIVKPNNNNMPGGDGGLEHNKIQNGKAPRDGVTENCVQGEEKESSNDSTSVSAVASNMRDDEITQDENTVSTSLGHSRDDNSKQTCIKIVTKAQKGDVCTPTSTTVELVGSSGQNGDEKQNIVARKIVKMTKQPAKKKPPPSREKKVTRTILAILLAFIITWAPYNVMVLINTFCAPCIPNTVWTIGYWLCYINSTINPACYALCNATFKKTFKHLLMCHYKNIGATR

Sodium-dependent serotonin transporter, sequence (P31652 whole entry): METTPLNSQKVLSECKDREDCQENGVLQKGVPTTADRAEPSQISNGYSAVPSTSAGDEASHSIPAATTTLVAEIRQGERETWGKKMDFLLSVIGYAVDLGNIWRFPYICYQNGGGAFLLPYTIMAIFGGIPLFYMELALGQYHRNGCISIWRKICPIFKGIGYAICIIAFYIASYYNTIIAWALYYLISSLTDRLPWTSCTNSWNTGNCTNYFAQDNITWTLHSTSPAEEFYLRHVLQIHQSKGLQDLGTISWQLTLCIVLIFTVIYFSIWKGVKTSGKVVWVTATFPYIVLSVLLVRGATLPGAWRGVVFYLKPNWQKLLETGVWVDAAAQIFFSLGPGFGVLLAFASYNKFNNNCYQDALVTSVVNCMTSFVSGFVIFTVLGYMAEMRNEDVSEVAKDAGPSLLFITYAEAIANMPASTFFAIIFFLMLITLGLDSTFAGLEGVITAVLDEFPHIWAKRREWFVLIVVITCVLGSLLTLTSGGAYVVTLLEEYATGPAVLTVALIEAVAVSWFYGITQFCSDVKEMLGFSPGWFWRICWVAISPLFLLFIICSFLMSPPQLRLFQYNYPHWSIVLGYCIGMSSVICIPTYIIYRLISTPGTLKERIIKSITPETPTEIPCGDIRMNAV

| Ki [1] | Ki [2] | Structure (SMILES) |
| --- | --- | --- |
| 7.9 µM | 2.9 µM | N=C(N)NC(=O)c1nc(Cl)c(N2CCCCCC2)nc1N |
| 1.9 µM | 5.8 µM | NC(=NCc1ccccc1)NC(=O)c1nc(Cl)c(N)nc1N [NSC_108107] |

| Structure (SMILES) | Ki [1] | Ki [2] |
| --- | --- | --- |
| N=C(N)NC(=O)c1nc(Cl)c(N)nc1N [3,5-diamino-N-carbamimidoyl-6-chloropyrazine-2-carboxamide] | – | > 10 µM |
